We go through 3 molecules from patent publication US20180244653A1, “SELECTIVE ALPHA-7 NICOTINIC RECEPTOR AGONISTS AND METHODS FOR MAKING AND USING THEM” (THE REGENTS OF THE UNIVERSITY OF CALIFORNIA, priority 2015, published 2018).

The target of assay [1] is T1, α4β2-nAChRs (Homo sapiens, UniProt P17787+P43681).
T1 construct: expressed in transfected cells; host or cells: HEKtsA201 cells co-expressing TN-XXL
Put plainly: Intact cell competitive radioligand binding assay ([3H]-(±)-epibatidine, SPA), LGIC-CNiFERs.

Assay [2] has as its target T2, 5HT3A receptors (Mus musculus, UniProt P23979).
T2 construct: expressed in transfected cells; host or cells: HEK293 cells co-expressing TN-XXL
T2 sequence (P23979 24-489): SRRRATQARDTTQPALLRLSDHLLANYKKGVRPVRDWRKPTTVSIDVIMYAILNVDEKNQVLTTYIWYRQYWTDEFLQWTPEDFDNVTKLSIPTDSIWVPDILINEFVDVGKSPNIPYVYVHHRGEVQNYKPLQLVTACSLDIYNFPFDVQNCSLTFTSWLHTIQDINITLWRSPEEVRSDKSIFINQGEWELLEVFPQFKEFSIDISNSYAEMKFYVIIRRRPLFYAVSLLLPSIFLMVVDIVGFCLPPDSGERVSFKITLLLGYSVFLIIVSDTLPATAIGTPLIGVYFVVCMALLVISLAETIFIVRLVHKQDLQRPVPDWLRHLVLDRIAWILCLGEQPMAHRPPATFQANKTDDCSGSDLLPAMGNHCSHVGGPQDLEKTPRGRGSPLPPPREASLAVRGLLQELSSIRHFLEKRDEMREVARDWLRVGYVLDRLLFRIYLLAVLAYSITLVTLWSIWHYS
Put plainly: Intact cell competitive radioligand binding assay ([3H]-granisetron, SPA), LGIC-CNiFERs. The settings on record: >10 = did not pass initial screen at 10 μM; read-out: Kd ± SD, 5HT3A.

The target in assay [3] is T2, 5HT3A receptors. In words: FRET functional assay (agonist/antagonist) using LGIC-CNiFERs. The assay is classed as cell-based. The settings on record: for EC50: * partial agonist, read-out: Agonist EC50 ± SD, 5HT3A; for Functional properties at 5HT3A receptors (agonist / antagonist, type): functional screening and characterization.
In assay [4] the target is T1, α4β2-nAChRs. The description is as above. The assay is classed as cell-based. The settings on record: for EC50: read-out: EC50 ± SD, α4β2; for Functional properties at α4β2-nAChRs (agonist / antagonist, type): functional screening and characterization.
A further assay addresses T3, α7-nAChRs (Homo sapiens, UniProt P36544).
T3 construct: expressed in transfected cells; host or cells: HEKtsA201 cells co-expressing TN-XXL
The description is as above. The format is cell-based.

Assay [5] deals with physiologically induced amnesia mice. In words: ORT time delay with MLA pretreatment (mechanism of action). The format is in vivo. The settings on record: MLA 3 mg/kg 5 min before test compound 10 μmol/kg. As to the method: Methyllycaconitine (MLA) was injected to block the α7-nAChR agonist response. The ORT in natural memory loss mice described above was the study model. […] Each mouse was allowed to explore an open field apparatus for 5 min in a habituation phase. After 24 hours, MLA (3 mg/kg) was injected 5 min before injection of test compounds. After 1 h of injected test compounds, each mouse explored 2 identical objects in the sample phase for 5 min. On the next day, one of the objects was changed to a new one and the mouse was allowed to explore these objects for 5 min. The exploration time of these objects was recorded.
FIG. 30 illustrates discrimination index (TN−TF/TN+TF) of each compound in the test phase of ORT for proving mechanism of action.
For dose finding protocol, the mice were randomly divided into different treatment groups, a control group receiving a vehicle and tested groups receiving PNU-282987 at 3, 10 mg/kg, and IND8, QND8 for 10, 25 μmol/kg, single dose. They were allowed to freely explore the open field apparatus for 5 min for habituation in a day before the experiment (day 1). On the test day (day 2), the test compound was injected 1 h before the sample phase. In this phase, mice were placed in the apparatus to explore two identical objects. On the next day (day 3), one object was changed to a new one and mice were allowed to explore these objects for 5 min in the test phase. […] The exploration time of each object was recorded if the nose of mouse came within 3 cm or touched the objects. The discrimination index (DI) was calculated by using (TN−TF)/(TN+TF); TN and TF represented exploration time of new and familiar objects, respectively.

[6] abbreviates: >10 = did not pass initial screen at 10 μM, read-out: Kd ± SD, α4β2.
Where [7] appears, read: >10 = did not pass initial screen.
The mark [8] stands for this setting: in presence of 10 μM PNU-120596, * partial agonist, >10 = did not pass initial screen, read-out: Agonist EC50 ± SD, α7.

“And” between values parts separate entries of the source, which are not always exact repeats. Identical values can stand only once. “Also recorded” adds a separate entry of the source. Like-named read-outs stand apart in the source and are kept apart here.

By EC50 is commonly meant the concentration giving half of the maximal effect. As to `c1cc2cc(-c3cn(C4CN5CCC4CC5)nn3)ccc2[nH]1` (stereo not shown) [IND8, 5-((Quinuclid-3-yl)-1H-1,2,3-triazol-4-yl)-1H-indole], the “Initial screening for binding to α4β2-nAChRs” value on α4β2-nAChRs [1] (10 μM, more than 50% radioligand displacement) is on record as “binds to α4β2-nAChRs”. Also, the Kd at α4β2-nAChRs [1] (setting [6]) was 750 nM; at 5HT3A receptors [2] it was 50 nM and 52 nM; at α4β2-nAChRs [4] (competitive antagonist (^C), >10 = did not pass initial screen, vs (±)-epibatidine, read-out: Antagonist KA ± SD, α4β2), more than 10000 nM. In addition, at 5HT3A receptors [3], the “5HT3A agonistic properties relative to α7-nAChR agonistic effect” value is on record as “seven fold lower”. For the same molecule, the EC50 at 5HT3A receptors [3] (setting [7]) was 210 nM; at α4β2-nAChRs [4] (setting [7]), more than 10000 nM; on α7-nAChRs (setting [8]), 30 nM and 28 nM. For the same molecule, on 5HT3A receptors [3], the “Functional properties at 5HT3A receptors (agonist / antagonist, type)” value was “agonistic properties; also recorded: partial agonist”. The “Functional properties at α4β2-nAChRs (agonist / antagonist, type)” value at α4β2-nAChRs [4] is “did not elicit agonist or antagonist properties”. The “Fold increase in α7-nAChR agonist potency over lead compound TTIn-1” value on α7-nAChRs is listed as 20 fold. In addition, in assay [5], the “Cognitive enhancement after MLA pretreatment, ORT time delay” value (shortened to “Cognitive enhancement”) was “complete abolition of the cognitive enhancement; also recorded: abolished by MLA”.

Regarding `O=C(N[C@H]1CN2CCC1CC2)c1ccc(Cl)cc1` [PNU-282987, reference compound], the Kd on α4β2-nAChRs [1] was more than 10000 nM; on 5HT3A receptors [2], more than 10000 nM; on 5HT3A receptors [3] (Antagonist KA ± SD, 5HT3A, competitive antagonist (^C), >10 = did not pass initial screen, vs 5-HT) it was 1200 nM; at α4β2-nAChRs [4] (Antagonist KA ± SD, α4β2, competitive antagonist (^C), >10 = did not pass initial screen, vs (±)-epibatidine), more than 10000 nM. Further, the EC50 at α4β2-nAChRs [4] (setting [7]) was more than 10000 nM; on α7-nAChRs (Agonist EC50 ± SD, α7), 110 ± 10 nM. For the same molecule, the “Cognitive enhancement” value in assay [5] is given as “abolished by MLA”.

With `Oc1ccc(-c2cn(C3CN4CCC3CC4)nn2)cc1` (stereo not shown) [QND8, 3-(4-hydroxyphenyl-1,2,3-triazol-1-yl) quinuclidine], the Kd was more than 10000 nM at α4β2-nAChRs [1] (setting [6]) and 540 ± 50 nM on 5HT3A receptors [2]. The EC50 on 5HT3A receptors [3] (setting [7]) is 900 ± 90 nM; at α7-nAChRs (setting [8]), 40 nM and 37 nM. At 5HT3A receptors [3], the “Functional properties at 5HT3A receptors (agonist / antagonist, type)” value was 5HT3A receptor agonist properties. For the same molecule, at α4β2-nAChRs [4] (competitive antagonist (^C), >10 = did not pass initial screen, vs (±)-epibatidine), the “Antagonist KA ± SD, α4β2” value is reported as 6.2 ± 1.7^C μM. For the same molecule, the “Functional properties at α4β2-nAChRs (agonist / antagonist, type)” value at α4β2-nAChRs [4] is listed as “competitive antagonism”. The “Fold increase in α7-nAChR agonist potency over lead compound TTIn-1” value at α7-nAChRs is on record as 20 fold. Further, the “Cognitive enhancement” value in assay [5] is “complete abolition of the cognitive enhancement; also recorded: abolished by MLA”.
